Results reported in patent publication US20030232114A1, “Method for liquid enrichment with oxygen and applications of enriched liquids” (priority 2002, published 2003).

Tested on: rats having a myocardial infarction due to a restriction of the coronaries
Experiment: Oxygen consumption in damaged tissues of rats with myocardial infarction (acute occlusion of blood vessels)
Type: in vivo
Conditions: conventional oxygen treatment by inhalation by means of a cannula, monitored for five days
Method: The oxygen enriched solutions of the invention were tested on experimental animals subjected to an acute occlusion of blood vessels which provoked degenerative changes of the interested tissues.
An oxygen enriched physiological solution of 0.3 cc having an oxygen partial pressure of 2 bar was intravenously administered at a rate of 1 g/min twice a days to a first group of 5 rats having a myocardial infarction due to a restriction of the coronaries. A second group of rats with the same disease, was subjected to a conventional oxygen treatment by inhalation by means of a cannula.
The results of the treatment were monitored and scheduled for five days. The first group of animals, treated by administering a solution in accordance with an embodiment of the present invention consumed 20% of oxygen in the damaged tissues whereas the second group which received the oxygen by inhalation consumed only 5% of oxygen in the damaged tissues.

O=O [oxygen]
oxygen consumed in the damaged tissues: 5%
